From patent US20080161234A1, “Composition Comprising Lactic Acid and Lactoferrin” (priority 2004, published 2008)
Counter-ions that a name gives are not always drawn.

Experiments:
Format in all cases: cell-based
E. coli 06 = assay: Microbicidal microplate-droplet assay, E. coli; design: key to E. coli killing, growth grade in droplet assay: +++ means that the number of colony forming units (CFU) contained within 5 ul of a droplet formed a smooth layer of bacteria; ++ means that a “ruffled” area is seen; 0 means that no CFU were found in triplicate samples of 5 ul (>99.95 killed of the inoculum)
Protocol: (§1) The bacterial strains S. aureus 1800 (CCUG 1800), E. coli 06, and the yeast C. albicans (ATCC 64549) have been used in the microplate assay. All microorganisms were cultured in brain heart infusion medium (BHI) on a shaker over night at 37° C. A volume of the culture was transferred to a new tube with BHI and incubated for two more h on the shaker. The bacteria were harvested in the log phase, washed once and thereafter suspended in the broth used for the microplate assay. The suspension was adjusted spectrophotometrically and diluted to a concentration of approximately 4×10^6 cells per ml at 650 nm. Washed cells were suspended in 0.2% BP (pH 7.0) or BHI medium diluted 1/10 (0.34%, pH 6.7-6.9) (Difco, USA). The concentration of bacterial or fungal cells was spectrophotometrically adjusted. LF or peptide, serially diluted in BHIdil or BP by twofold steps (unless otherwise stated), were added in triplicate to the wells of a microtiterplate (200 ul per well). The bacterial or yeast cell solutions were added in 10 ul volumes to give a final concentration of approximately 2×10^5 cells per ml. The concentration of the stock solution was always checked by viable counts. The microplate was incubated at 37° C. in a humid chamber for 2 h unless otherwise stated. Five ul were taken from each well and added as a drop onto a blood agar plate and incubated over night at 37° C. In some experiments more thorough viable counts were performed and the killing was expressed as remaining colony forming units in relation to the inoculum. The lower limit for detection of microorganisms was 200 CFU/ml. The antimicrobial activity of human LF was analysed by the microbicidal assay described above. Different microbes such as C. albicans, E. coli and S. aureus were analysed with respect to their survival in lactate (not containing the inert gel base, which makes the gel unsuitable for the microbicidal assay) containing LF.

C. albicans (ATCC 64549) = assay: Microbicidal microplate assay (viable counts), C. albicans
Protocol: as §1, with “LF. […] LF was incubated together with various concentrations of lactate diluted in 0.2% bactopeptone and C. albicans for 2 h. Thereafter each solution was analysed for viable counts.” for “LF.”

L. jensenii = assay: Survival of L. jensenii in lactate with LF; details: lactate 1%, 0.34% BHI, CO2, 3 h
Protocol: L. gasseri and L. jensenii were cultured on chocolate-agar plates for 24 h in 5% CO2/95% air. They were thereafter harvested and added to BHI (0.34%). After washing the bacterial solutions were adjusted spectrophotometrically and diluted to 8×10^6 bacteria/ml.
Washed cells were suspended in 0.2% BP (pH 7.0) or BHI medium diluted 1/10 (0.34%, pH 6.7-6.9) (Difco, USA). The concentration of bacterial or fungal cells was spectrophotometrically adjusted. LF or peptide, serially diluted in BHIdil or BP by twofold steps (unless otherwise stated), were added in triplicate to the wells of a microtiterplate (200 ul per well). The bacterial or yeast cell solutions were added in 10 ul volumes to give a final concentration of approximately 2×10^5 cells per ml. The concentration of the stock solution was always checked by viable counts. The microplate was incubated at 37° C. in a humid chamber for 2 h unless otherwise stated. Five ul were taken from each well and added as a drop onto a blood agar plate and incubated over night at 37° C. In some experiments more thorough viable counts were performed and the killing was expressed as remaining colony forming units in relation to the inoculum. The lower limit for detection of microorganisms was 200 CFU/ml.
L. gasseri survived better in the assay system than did L. jensenii. Undiluted lactate (5%) affected the survival of Lactobacillus.

[1] = tested on: S. aureus 1800 (CCUG 1800); assay: Microbicidal microplate-droplet assay, S. aureus
Protocol: as §1

[2] = in the absence or presence of LF

SMILES: CC(O)C(=O)O (stereo not drawn) [lactate, α-hydroxipropionic acid]
- antibacterial activity towards E. coli (E. coli 06; [2]): good
- E. coli killing, growth grade in droplet assay (E. coli 06; lactate 0.2% alone (HLF 0 ug/ml), 2 h incubation): ++
- E. coli killing, percentage of bacteria remaining in relation to the inoculum (E. coli 06; lactate 0.2% alone (HLF 0 ug/ml), 5 h incubation): 5%
- E. coli killing, percentage of bacteria remaining in relation to the inoculum (E. coli 06; lactate 1% alone (HLF 0 ug/ml), 5 h incubation): 6%
- E. coli killing, percentage of bacteria remaining in relation to the inoculum (E. coli 06; lactate 5% alone (HLF 0 ug/ml), 2 h incubation): 0 (0 means that no CFU were found in triplicate samples of 5 ul (>99.95 killed of the inoculum))
- E. coli killing, percentage of bacteria remaining in relation to the inoculum (E. coli 06; lactate 5% alone (HLF 0 ug/ml), 5 h incubation): 0 (0 means that no CFU were found in triplicate samples of 5 ul (>99.95 killed of the inoculum))
- survival of E. coli (E. coli 06; undiluted lactate (5%), 2 h): no bacteria survived
- antimicrobial activity against E. coli (E. coli 06; undiluted lactate, without LF): complete
- reduction of Candida (C. albicans (ATCC 64549); lactate 1% without LF, 2 h): 65%
- antifungal activity (C. albicans (ATCC 64549); undiluted lactate): an antifungal activity was observed
- survival of C. albicans (C. albicans (ATCC 64549); undiluted lactate (5%), 2 h): no yeast cells survived
- antimicrobial activity against C. albicans (C. albicans (ATCC 64549); undiluted lactate (5%), without LF or HL2): complete
- survival of L. jensenii (L. jensenii): did not survive
- antibacterial activity towards S. aureus [1, 2]: good
- S. aureus killing, percentage of bacteria remaining in relation to the inoculum ([1]; lactate 0.2% alone (HLF t0 ug/ml), 2 h incubation): 0 (0 = no bacteria in triplicate samples of 5 ul (>99.95 killed of the inoculum).)
- S. aureus killing, percentage of bacteria remaining in relation to the inoculum ([1]; lactate 0.2% alone (HLF t0 ug/ml), 5 h incubation): 0 (0 = no bacteria in triplicate samples of 5 ul (>99.95 killed of the inoculum).)
- S. aureus killing, percentage of bacteria remaining in relation to the inoculum ([1]; lactate 1% alone (HLF t0 ug/ml), 2 h incubation): 0 (0 = no bacteria in triplicate samples of 5 ul (>99.95 killed of the inoculum).)
- S. aureus killing, percentage of bacteria remaining in relation to the inoculum ([1]; lactate 1% alone (HLF t0 ug/ml), 5 h incubation): 0 (0 = no bacteria in triplicate samples of 5 ul (>99.95 killed of the inoculum).)
- S. aureus killing, percentage of bacteria remaining in relation to the inoculum ([1]; lactate 5% alone (HLF t0 ug/ml), 2 h incubation): 0 (0 = no bacteria in triplicate samples of 5 ul (>99.95 killed of the inoculum).)
- S. aureus killing, percentage of bacteria remaining in relation to the inoculum ([1]; lactate 5% alone (HLF t0 ug/ml), 5 h incubation): 0 (0 = no bacteria in triplicate samples of 5 ul (>99.95 killed of the inoculum).)
- antimicrobial activity against S. aureus ([1]; undiluted lactate, without LF): complete

SMILES: Cl [HCl, hydrogen chloride, reference compound]
- Candidacidal activity with lactate replaced by HCl (C. albicans (ATCC 64549); HCl giving the same pH as lactate, undiluted, with LF): reduced Candidacidal activity
